Patent publication US20220257621A1, “CANCER CELL PROLIFERATION SUPPRESSION AGENT AND COMPOSITION FOR SUPPRESSING PROLIFERATION OF CANCER CELLS” (SHOWA DENKO K.K., priority 2019, published 2022)

Legend:
CYP1A1 gene = experiment: Suppression of CYP1A1 gene expression induced by atmospheric dust (quantitative real-time PCR); type: cell-based, human; details: NHEK; sample 0.001% by mass 24 h, then atmospheric dust (NIST 1648a) 500 μg/mL 48 h; standardized to GAPDH; control without dust = 1; dust + water = 4.11
Experimental: (§1) The effect of the inositol derivative on suppressing the expression of a CYP1A1 gene and a CYP1B1 gene in normal human epidermal keratinocytes (NHEK, manufactured by KURABO INDUSTRIES LTD.) was measured under the following conditions.
(§2) The NHEK cells were seeded in a HuMedia KG2 medium manufactured by KURABO INDUSTRIES LTD. at the seeding density of 10000 cells/cm^2, and cultured for 24 hours under the conditions of 37° C. and 5% CO2. […] Using this cDNA as a template, the expression levels of the CYP1A1 gene and the CYP1B1 gene were quantitatively determined by quantitative real-time PCR using primers (QuantiTect Primer Assays, manufactured by QIAGEN) specific to the CYP1A1 gene and the CYP1B1 gene. As an internal standard gene, the expression level of a GAPDH gene, which is a housekeeping gene in which expression fluctuation due to the addition of atmospheric dust is not shown, was quantitatively determined (primer used: Perfect Real Time Primer, manufactured by Takara Bio Inc.), and the expression levels of the CYP1A1 gene and the CYP1B1 gene were standardized based on the expression level of GAPDH. […]

CYP1B1 gene = experiment: Suppression of CYP1B1 gene expression induced by atmospheric dust (quantitative real-time PCR); type: cell-based, human; details: NHEK; sample 0.001% by mass 24 h, then atmospheric dust (NIST 1648a) 500 μg/mL 48 h; standardized to GAPDH; control without dust = 1; dust + water = 4.30
Experimental: as §1, §2

ARNT gene = experiment: Suppression of ARNT gene expression induced by atmospheric dust (quantitative real-time PCR); type: cell-based, human; details: NHEK; sample 0.001% by mass 24 h, then atmospheric dust (NIST 1648a) 500 μg/mL 48 h; standardized to GAPDH; control without dust = 1; dust + water = 1.74
Experimental: The effect of the inositol derivative on suppressing the expression of an ARNT gene in normal human epidermal keratinocytes (NHEK, manufactured by KURABO INDUSTRIES LTD.) was measured under the following conditions. The NHEK cells were seeded in a HuMedia KG2 medium manufactured by KURABO INDUSTRIES LTD. at the seeding density of 10000 cells/cm^2, and cultured for 24 hours under the conditions of 37° C. and 5% CO2. Next, an aqueous solution of the inositol derivative or an aqueous solution of myo-inositol was added to the culture medium so that the final concentration of the inositol derivative or myo-inositol was 0.001% by mass, or water (pure water) was added to the culture medium, and culturing was further performed for 24 hours. […] Using this cDNA as a template, the expression level of the ARNT gene was quantitatively determined by quantitative real-time PCR using a primer specific to the ARNT gene (Perfect Real Time Primer, manufactured by Takara Bio Inc.). As an internal standard gene, the expression level of GAPDH was quantitatively determined (primer used: Perfect Real Time Primer, manufactured by Takara Bio Inc.), and the expression level of the ARNT gene was standardized based on the expression level of GAPDH. […]

[1] = test system: normal human epidermal keratinocytes (NHEK); experiment: Effect (1) of suppressing ROS production induced by atmospheric dust (ROS assay kit, fluorescence); type: cell-based
Experimental: The effect of the inositol derivative on suppressing ROS production in normal human epidermal keratinocytes (NHEK, manufactured by KURABO INDUSTRIES LTD.) was measured under the following conditions. The NHEK cells were seeded in a HuMedia KG2 medium manufactured by KURABO INDUSTRIES LTD. at the seeding density of 10000 cells/cm^2, and cultured for 24 hours under the conditions of 37° C. and 5% CO2. Next, an aqueous solution of the inositol derivative or an aqueous solution of myo-inositol was added to the culture medium so that the final concentration of the inositol derivative or myo-inositol was 0.001% by mass, or water (pure water) was added to the culture medium, and culturing was further performed for 24 hours. Thereafter, 0.1 mL of a DMSO solution of atmospheric dust (NIST 1648a) was added per 100 mL of the culture medium so that the final concentration of the atmospheric dust in the culture medium was 500 μg/mL, and culturing was further performed for 48 hours in the same conditions as above. Thereafter, the ROS production amount was measured using a ROS assay kit (manufactured by OZ BIOSCIENCES). […] After washing the cells with PBS again, 100 μL of PBS was added, and the fluorescence intensity at an excitation wavelength of 485 nm/an absorption wavelength of 535 nm was measured with a microplate reader i-Control (manufactured by Tecan Group Ltd.). […]

O[C@H]1[C@H](O)[C@@H](O)[C@H](O)[C@@H](O)[C@H]1O [myo-Inositol, myo-inositol]
Relative gene expression level CYP1A1 (CYP1A1 gene): 3.10
Relative gene expression level CYP1B1 (CYP1B1 gene): 1.08
Relative gene expression level ARNT (ARNT gene): 1.85
Effect of suppressing ROS production as compared to the water-added group ([1]; 0.001% by mass, atmospheric dust 500 μg/mL): not recognized
Relative ROS production amount ([1]; sample 0.001% by mass 24 h, then atmospheric dust 500 μg/mL 48 h, fluorescence relative to control without dust = 1, dust + water = 1.46): 1.83
